Experimental data published in patent US20230265116A1, “DEGRADATION OF (EGFR) BY CONJUGATION OF EGFR INHIBITORS WITH E3 LIGASE LIGAND AND METHODS OF USE” (BEIGENE, LTD., priority 2020, published 2023).
Structures can show the parent of a compound that is named as a salt.

What was measured:
[1] = molecular target: T1, EGFR L858R/T790M (H1975-clone #36, homozygous) (Homo sapiens, UniProt P00533, L858R/T790M); experiment: EGFR degradation HTRF assay, H1975-clone #36 cells; type: cell-based; conditions: H1975 #36, 16h treatment; for Dmax: NCI-H1975, maximum percentage of degradation
T1 construct: designed to specifically target WT EGFR but preserve the L858R/T790M copy; host or cells: H1975-clone #36
T1 sequence (P00533 25-1210 T790M/L858R): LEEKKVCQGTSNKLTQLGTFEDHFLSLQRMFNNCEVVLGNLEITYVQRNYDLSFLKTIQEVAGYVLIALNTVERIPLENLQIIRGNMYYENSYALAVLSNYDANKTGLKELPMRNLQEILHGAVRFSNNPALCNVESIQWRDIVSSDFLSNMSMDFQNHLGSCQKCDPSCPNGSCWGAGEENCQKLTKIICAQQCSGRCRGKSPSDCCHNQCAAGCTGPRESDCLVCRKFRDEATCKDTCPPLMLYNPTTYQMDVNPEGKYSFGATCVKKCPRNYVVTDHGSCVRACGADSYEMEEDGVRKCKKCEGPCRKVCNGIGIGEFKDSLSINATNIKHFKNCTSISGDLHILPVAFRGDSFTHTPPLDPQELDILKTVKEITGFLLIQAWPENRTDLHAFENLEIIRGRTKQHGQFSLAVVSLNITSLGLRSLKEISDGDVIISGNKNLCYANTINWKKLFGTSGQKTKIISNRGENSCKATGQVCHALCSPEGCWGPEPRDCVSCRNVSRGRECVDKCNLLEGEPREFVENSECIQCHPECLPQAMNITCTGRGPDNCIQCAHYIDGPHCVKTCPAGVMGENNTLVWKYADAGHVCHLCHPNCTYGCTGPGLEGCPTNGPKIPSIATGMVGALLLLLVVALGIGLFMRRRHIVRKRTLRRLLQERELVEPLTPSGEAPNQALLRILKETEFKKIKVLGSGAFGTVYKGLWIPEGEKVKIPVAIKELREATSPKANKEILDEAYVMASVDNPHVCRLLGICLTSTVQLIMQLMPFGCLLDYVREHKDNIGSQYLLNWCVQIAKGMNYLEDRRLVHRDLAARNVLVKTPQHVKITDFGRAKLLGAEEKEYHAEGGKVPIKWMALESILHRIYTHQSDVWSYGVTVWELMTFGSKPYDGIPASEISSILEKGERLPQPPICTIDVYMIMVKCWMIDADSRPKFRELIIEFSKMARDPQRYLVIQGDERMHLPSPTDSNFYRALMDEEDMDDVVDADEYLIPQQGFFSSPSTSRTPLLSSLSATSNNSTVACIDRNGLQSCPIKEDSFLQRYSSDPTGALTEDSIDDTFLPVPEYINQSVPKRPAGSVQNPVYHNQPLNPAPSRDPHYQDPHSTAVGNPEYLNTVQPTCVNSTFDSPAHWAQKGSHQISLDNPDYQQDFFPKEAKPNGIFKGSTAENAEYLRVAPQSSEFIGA
Procedure: H1975-clone #36(L858R/T790M). H1975 cell heterozygously (from ATCC) contains alleles of WT and L858R/T790M EGFR. H1975-clone #36(L858R/T790M) was generated by gene knockout, in which the EGFR targeting sgRNA was designed to specifically target WT EGFR but preserve the L858R/T790M copy. Followed by the gene knockout, the edited H1975 cells were seeded in 96 well plates at the concentration of 1 cell/well, cultured for about 2 weeks to allow single clones formation. The formed clones were screened by DNA sequencing for the desired edition. H1975-clone #36 was confirmed as a homozygous L858R/T790M EGFR clone.
BaF3 WT(wild type), BaF3-LTC(L858R/T790M/C797S) and BaF3-DTC(Del19/T790M/C797S) cells are treated with compounds diluted in 0.2% DMSO cell culture medium and incubate for 16h, 37° C., 5% CO2, H1975-#36, H1975-#28, H1975-#23 and HCC827 cells are treated with compounds diluted in 0.2% DMSO cell culture medium on day 2, incubate for 16h, 37° C., 5% CO2.the final concentriation of compounds in all assay is start with 10 uM, 5-fold dilution, total 8 doses were included.
After 16h treatment, add HTRF lysis buffer to each well; seal the plate and incubate 1 hour at room temperature on a plate shaker; Once the cells are lysed, 16 μL of cell lysate are transferred to a PE 384-well HTRF detection plate; 4 μL of pre-mixed HTRF antibodies are added to each well; Cover the plate with a plate sealer, spin 1000 rpm for 1 min, Incubate overnight at room temperature; Read on BMG PheraStar with HTRF protocol (337 nm-665 nm-620 nm).
The inhibition (degradation) percentage of the compound was calculated by the following equation: Inhibition percentage of Compound=100-100×(Signal-low control)/(High control-low control), wherein signal=each test compound group
High control=Cell group with added DMSO and without compound, indicating microplate readings without EGFR degradation;
Dmax is the maximum percentage of inhibition (degradation).
The IC50 (DC50) value of a compound can be obtained by fitting the following equation
Y=Bottom+(TOP−Bottom)/(1+((IC50/X)^hillslope))
Wherein, X and Y are known values, and IC50, Hillslope, Top and Bottom are the parameters obtained by fitting with software. Y is the inhibition percentage (calculated from the equation), X is the concentration of the compound; IC50 is the concentration of the compound when the 50% inhibition is reached. The smaller the IC50 value is, the stronger the inhibitory ability of the compound is. Vice versa, the higher the IC50 value is, the weaker the inhibitory ability of the compound is; Hillslope represents the slope of the fitted curve, generally around 1*; Bottom represents the minimum value of the curve obtained by data fitting, which is generally 0%±20%; Top represents the maximum value of the curve obtained by data fitting, which is generally 100%±20%. The experimental data were fitted by calculating and analyzing with Dotmatics data analysis software.

[2] = molecular target: T2, EGFR (HCC827 cells) (Homo sapiens, UniProt P00533, DEL746-750); experiment: EGFR degradation HTRF assay, HCC827 cells; type: cell-based; conditions: HCC827, 16h treatment; for Dmax: maximum percentage of degradation
T2 construct: endogenous in cells; host or cells: HCC827
T2 sequence (P00533 with tags, fused parts or gaps DEL746-750): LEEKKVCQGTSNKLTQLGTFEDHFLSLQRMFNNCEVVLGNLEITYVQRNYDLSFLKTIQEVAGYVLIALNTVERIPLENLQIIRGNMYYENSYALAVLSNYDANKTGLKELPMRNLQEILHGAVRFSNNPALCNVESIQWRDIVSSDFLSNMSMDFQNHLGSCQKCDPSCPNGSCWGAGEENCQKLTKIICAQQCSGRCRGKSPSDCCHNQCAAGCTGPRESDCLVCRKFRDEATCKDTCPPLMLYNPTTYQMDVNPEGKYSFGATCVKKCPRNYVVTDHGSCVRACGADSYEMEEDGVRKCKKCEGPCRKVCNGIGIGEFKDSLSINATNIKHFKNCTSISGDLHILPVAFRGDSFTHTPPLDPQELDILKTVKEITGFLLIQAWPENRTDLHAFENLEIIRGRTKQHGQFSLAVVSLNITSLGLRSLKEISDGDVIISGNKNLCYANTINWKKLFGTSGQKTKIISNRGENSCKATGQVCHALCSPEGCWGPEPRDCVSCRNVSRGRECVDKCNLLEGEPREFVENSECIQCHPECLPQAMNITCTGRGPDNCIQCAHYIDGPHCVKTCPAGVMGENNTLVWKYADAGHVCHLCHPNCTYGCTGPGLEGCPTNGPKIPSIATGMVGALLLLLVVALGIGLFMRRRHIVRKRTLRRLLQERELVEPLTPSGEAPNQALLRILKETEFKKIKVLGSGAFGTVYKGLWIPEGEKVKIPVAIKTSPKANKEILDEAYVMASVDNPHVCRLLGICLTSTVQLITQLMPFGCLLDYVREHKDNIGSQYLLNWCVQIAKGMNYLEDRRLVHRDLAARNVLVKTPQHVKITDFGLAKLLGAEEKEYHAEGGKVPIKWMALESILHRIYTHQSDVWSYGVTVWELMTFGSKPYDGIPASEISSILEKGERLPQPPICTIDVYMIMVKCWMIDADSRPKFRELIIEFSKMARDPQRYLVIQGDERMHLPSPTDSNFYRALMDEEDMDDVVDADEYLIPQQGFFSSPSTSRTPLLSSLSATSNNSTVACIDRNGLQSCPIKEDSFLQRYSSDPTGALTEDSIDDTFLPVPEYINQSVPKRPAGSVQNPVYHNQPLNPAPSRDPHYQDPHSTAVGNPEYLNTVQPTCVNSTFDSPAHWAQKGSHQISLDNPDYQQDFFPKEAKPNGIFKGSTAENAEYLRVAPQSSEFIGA
Method in brief: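 BaF3 (WT, Del19/T790M/C797S) and HCC827 cells exposed 16 h at 37 °C, 5% CO2 to compounds in 0.2% DMSO medium, 8 doses from 10 uM top, 5-fold steps. Lysates read by HTRF (665/620 nm); degradation % vs DMSO control, DC50 from four-parameter fit, Dmax as maximal degradation.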

| Compound | DC50 [1] | Dmax [1] | DC50 [2] | Dmax [2] |
| --- | --- | --- | --- | --- |
| COc1cc(N2CCN(C3CN(C(=O)c4cnc(C(=O)Nc5ccc(C6CCC(=O)NC6=O)cc5)cn4)C3)CC2)c(C)cc1Nc1ncc(Br)c(Nc2ccc3nccnc3c2P(C)(C)=O)n1 (stereo not drawn) [Example 100, 5-(3-(4-(4-((5-bromo-4-((5-(dimethylphosphoryl)quinoxalin-6-yl)amino)pyrimidin-2-yl)amino)-5-methoxy-2-methylphenyl)piperazin-1-yl)azetidine-1-carbonyl)-N-(4-(2,6-dioxopiperidin-3-yl)phenyl)pyrazine-2-carboxamide] | 8.7 nM | 62.6% | 6.34 nM | 76.9% |
| COc1cc(N2CCN(C3CCN(CCc4ccc(C5CCC(=O)NC5=O)cc4)CC3)CC2)ccc1Nc1ncc(Cl)c(Nc2ccccc2N(C)S(C)(=O)=O)n1 (stereo not drawn) [Example 120, N-(2-((5-chloro-2-((4-(4-(1-(4-(2,6-dioxopiperidin-3-yl)phenethyl)piperidin-4-yl)piperazin-1-yl)-2-methoxyphenyl)amino)pyrimidin-4-yl)amino)phenyl)-N-methylmethanesulfonamide hydrochloride] | 5.22 nM | 91.6% | 14.2 nM | 86.4% |
| COc1cc(N2CCN(CC3CCN(c4ccc(C5CCC(=O)NC5=O)cc4)CC3)CC2)ccc1Nc1ncc(Cl)c(Nc2ccccc2P(C)(C)=O)n1 (stereo not drawn) [Example 105, 3-(4-(4-((4-(4-((5-chloro-4-((2-(dimethylphosphoryl)phenyl)amino)pyrimidin-2-yl)amino)-3-methoxyphenyl)piperazin-1-yl)methyl)piperidin-1-yl)phenyl)piperidine-2,6-dione] | 12.2 nM | 83.7% | 16 nM | 67.2% |
| COc1cc(N2CCC(N3CCN(CCC4CCN(c5ccc(C6CCC(=O)NC6=O)cc5)CC4)CC3)CC2)ccc1Nc1ncc(Cl)c(Nc2ccccc2P(C)(C)=O)n1 (stereo not drawn) [Example 106, 3-(4-(4-(2-(4-(1-(4-((5-chloro-4-((2-(dimethylphosphoryl)phenyl)amino)pyrimidin-2-yl)amino)-3-methoxyphenyl)piperidin-4-yl)piperazin-1-yl)ethyl)piperidin-1-yl)phenyl)piperidine-2,6-dione] | 8.32 nM | 63% | 7.06 nM | 63.2% |
| COc1cc(N2CCC(N3CCN(C(=O)C[C@H](NC(=O)[C@@H]4C[C@@H](O)CN4C(=O)[C@@H](c4cc(C)no4)C(C)C)c4ccc(-c5scnc5C)cc4)CC3)CC2)ccc1Nc1ncc(Cl)c(Nc2ccccc2P(C)(C)=O)n1 [Example 117, (2S,4R)—N—((S)-3-(4-(1-(4-((5-chloro-4-((2-(dimethylphosphoryl)phenyl)amino)pyrimidin-2-yl)amino)-3-methoxyphenyl)piperidin-4-yl)piperazin-1-yl)-1-(4-(4-methylthiazol-5-yl)phenyl)-3-oxopropyl)-4-hydroxy-1-((R)-3-methyl-2-(3-methylisoxazol-5-yl)butanoyl)pyrrolidine-2-carboxamide] | 67.4 nM | 86.7% | 17 nM | 76.2% |
| CCc1cc(Nc2ncc(Br)c(Nc3ccc4nccnc4c3P(C)(C)=O)n2)c(OC)cc1N1CCC(N2CCN(CC3CCN(c4ccc(C5CCC(=O)NC5=O)cc4)CC3)CC2)CC1 (stereo not drawn) [Example 22, 3-(4-(4-((4-(1-(4-((5-bromo-4-((5-(dimethylphosphoryl)quinoxalin-6-yl)amino)pyrimidin-2-yl)amino)-2-ethyl-5-methoxyphenyl)piperidin-4-yl)piperazin-1-yl)methyl)piperidin-1-yl)phenyl)piperidine-2,6-dione] | > 10000 nM | 41.7% | 6.26 nM | 67.5% |
| CCc1cc(Nc2ncc(Br)c(Nc3ccc4nccnc4c3P(C)(C)=O)n2)c(OC)cc1N1CCC(N2CCN(CCc3ccc(C4CCC(=O)NC4=O)c(OC)c3)CC2)CC1 (stereo not drawn) [Example 2, 3-(4-(2-(4-(1-(4-((5-bromo-4-((5-(dimethylphosphoryl)quinoxalin-6-yl)amino)pyrimidin-2-yl)amino)-2-ethyl-5-methoxyphenyl)piperidin-4-yl)piperazin-1-yl)ethyl)-2-methoxyphenyl)piperidine-2,6-dione] | 3720 nM | 53.6% | 18 nM | 78.5% |
| COc1cc(N2CCC(N3CCN(CCCOc4ccc(OC5CCC(=O)NC5=O)cc4)CC3)CC2)ccc1Nc1ncc(Cl)c(Nc2ccccc2N(C)S(C)(=O)=O)n1 (stereo not drawn) [Example 127, N-(2-((5-chloro-2-((4-(4-(4-(3-(4-((2,6-dioxopiperidin-3 yl)oxy)phenoxy)propyl)piperazin-1-yl)piperidin-1-yl)-2-methoxyphenyl)amino)pyrimidin-4-yl)amino)phenyl)-N-methylmethanesulfonamide] | 11.9 nM | 64.7% | 35.9 nM | 71.4% |
| CCc1cc(Nc2ncc(Br)c(Nc3ccc4nccnc4c3P(C)(C)=O)n2)c(OC)cc1N1CCC(N2CCN(C(=O)CCC3CN(c4ccc5c(c4)C(=O)N(C4CCC(=O)NC4=O)C5=O)C3)CC2)CC1 (stereo not drawn) [Example 57, 5-(3-(3-(4-(1-(4-((5-bromo-4-((5-(dimethylphosphoryl)quinoxalin-6-yl)amino)pyrimidin-2-yl)amino)-2-ethyl-5-methoxyphenyl)piperidin-4-yl)piperazin-1-yl)-3-oxopropyl)azetidin-1-yl)-2-(2,6-dioxopiperidin-3-yl)isoindoline-1,3-dione] | 5.31 nM | 77.4% | 4.8 nM | 76.1% |
| COc1cc(N2CCC(N(C)CC3CCN(c4ccc(N5CCC(=O)NC5=O)cc4)CC3)CC2)c(C)cc1Nc1ncc(Br)c(Nc2ccc3nccnc3c2P(C)(C)=O)n1 [Example 79, 1-(4-(4-(((1-(4-((5-bromo-4-((5-(dimethylphosphoryl)quinoxalin-6-yl)amino)pyrimidin-2-yl)amino)-5-methoxy-2-methylphenyl)piperidin-4-yl)(methyl)amino)methyl)piperidin-1-yl)phenyl)dihydropyrimidine-2,4(1H,3H)-dione] | > 10000 nM | 18.6% | 17.5 nM | 72.1% |
| CCc1cc(Nc2ncc(Br)c(Nc3ccc4nccnc4c3P(C)(C)=O)n2)c(OC)cc1N1CCC(N2CCN(CCC3CN(c4ccc5c(c4)C(=O)N(C4CCC(=O)NC4=O)C5=O)C3)CC2)CC1 (stereo not drawn) [Example 58, 5-(3-(2-(4-(1-(4-((5-bromo-4-((5-(dimethylphosphoryl)quinoxalin-6-yl)amino)pyrimidin-2-yl)amino)-2-ethyl-5-methoxyphenyl)piperidin-4-yl)piperazin-1-yl)ethyl)azetidin-1-yl)-2-(2,6-dioxopiperidin-3-yl)isoindoline-1,3-dione] | 3.9 nM | 88.5% | 5.45 nM | 78.5% |
| COc1cc(N2CCC(N3CCN(CCc4ccc(C5CCC(=O)NC5=O)cc4)CC3)CC2)ccc1Nc1ncc(Cl)c(Nc2ccccc2NS(C)(=O)=O)n1 (stereo not drawn) [Example 138, N-(2-((5-chloro-2-((4-(4-(4-(4-(2,6-dioxopiperidin-3-yl)phenethyl)piperazin-1-yl)piperidin-1-yl)-2-methoxyphenyl)amino)pyrimidin-4-yl)amino)phenyl)methanesulfonamide] | 3.58 nM | 87% | 15.1 nM | 82.2% |
